Converted amounts (≈) assume the structure as drawn.
Tests used:
Plasmodium yoelii [1] = test: Antimalarial activity as reduced parasitaemia at day 4 against Plasmodium yoelii N67 infected Swiss mice (Mus musculus) compared to chloroquine; format: functional, N-67; set-up: concentration or dose not given beside the values
Plasmodium yoelii [2] = test: Antimalarial activity as mean survival time against Plasmodium yoelii N67 infected Swiss mice (Mus musculus); format: functional, N-67
Plasmodium falciparum [3] = test: Antimalarial activity against Plasmodium falciparum NF54; details: NF-54
[4] = Inhibition of Plasmodium falciparum falcipain-2
Plasmodium berghei [5] = test: Gametocytocidal activity as infected mosquitoes against Plasmodium berghei at 10 uM/kg; format: functional
Plasmodium berghei [6] = test: Gametocytocidal activity as oocysts per mosquito against Plasmodium berghei; format: functional
[7] = Stability assessed as hydrolysis to metabolite in presence of 80% human plasma; format: ADME, cell-free
Plasmodium falciparum [8] = test: Antimalarial activity against chloroquine-resistant Plasmodium falciparum W2; format: functional, organism-based
Plasmepsin II = Plasmepsin II (Plasmodium falciparum, UniProt P46925); test: Inhibition of Plasmodium falciparum plasmepsin-2
Chain of Plasmepsin II (P46925 whole entry): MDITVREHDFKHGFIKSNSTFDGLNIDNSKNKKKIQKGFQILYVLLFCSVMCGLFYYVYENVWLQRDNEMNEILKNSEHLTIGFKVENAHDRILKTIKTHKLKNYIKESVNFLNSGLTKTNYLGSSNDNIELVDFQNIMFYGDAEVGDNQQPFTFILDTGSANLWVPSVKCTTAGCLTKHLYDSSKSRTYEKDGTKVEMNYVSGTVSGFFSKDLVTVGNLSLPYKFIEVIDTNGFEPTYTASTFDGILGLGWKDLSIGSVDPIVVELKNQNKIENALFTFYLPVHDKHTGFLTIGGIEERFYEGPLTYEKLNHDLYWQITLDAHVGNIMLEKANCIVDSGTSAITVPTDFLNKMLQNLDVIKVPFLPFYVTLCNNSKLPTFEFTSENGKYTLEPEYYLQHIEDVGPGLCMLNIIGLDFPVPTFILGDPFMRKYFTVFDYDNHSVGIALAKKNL

Plasmodium falciparum [9] = test: microbe, parasite or virus in culture; details: D10
Description: Antimalarial activity against chloroquine-sensitive Plasmodium falciparum D10

Plasmodium falciparum [10] = test: Antimalarial activity against Plasmodium falciparum FcB1R; details: read-out: ED50 (the source's name)
Plasmodium falciparum [11] = test: Antimalarial activity against chloroquine-resistant Plasmodium falciparum K1; format: functional, organism-based

O=C1c2ccccc2SC(c2c(Cl)cccc2Cl)N1CCCNc1ccnc2cc(Cl)ccc12 (stereo unspecified)
Activity (Plasmodium yoelii [1]): 23.5%
Survival (Plasmodium yoelii [2]): 13.8 days
IC50 (Plasmodium falciparum [3]): 14 nM
MIC (Plasmodium falciparum [3]): 0.28 µM (≈ 0.148 µg/mL)

O=C1CCSC(c2ccc(Cl)cc2)N1CCNc1ccnc2cc(Cl)ccc12 (stereo unspecified)
Activity (Plasmodium yoelii [1]): 81%
Survival (Plasmodium yoelii [2]): 15.2 days
IC50 (Plasmodium falciparum [3]): 13 nM
MIC (Plasmodium falciparum [3]): 0.26 µM (≈ 0.112 µg/mL)

O=C1CSC(c2c(Cl)cccc2Cl)N1CCNc1ccnc2cc(Cl)ccc12 (stereo unspecified)
Activity (Plasmodium yoelii [1]): 76.08%
Survival (Plasmodium yoelii [2]): 14.6 days
IC50 (Plasmodium falciparum [3]): 39 nM
MIC (Plasmodium falciparum [3]): 0.55 µM (≈ 0.249 µg/mL)

O=C(NCCNc1ccnc2cc(Cl)ccc12)N/N=C/c1ccc(O)c(CN2CCCC2)c1O
IC50 [4]: 720 nM

O=C(NCCNc1ccnc2cc(Cl)ccc12)N/N=C/c1ccc(O)c(CN2CCN(c3ccnc4cc(Cl)ccc34)CC2)c1O
IC50 [4]: 3160 nM

NC(=O)N/N=C/c1ccc(O)c(CN2CCN(c3ccnc4cc(Cl)ccc34)CC2)c1O
IC50 [4]: > 20000 nM

NC(=S)N/N=C/c1ccc(O)c(CN2CCN(c3ccnc4cc(Cl)ccc34)CC2)c1O
IC50 [4]: 2250 nM

CCN(CC)Cc1c(O)ccc(/C=N/NC(=O)NCCNc2ccnc3cc(Cl)ccc23)c1O
IC50 [4]: 2600 nM

COc1cc(NC(C)CCCN2C(=O)CNC23CCCCC3)c2ncccc2c1 (stereo unspecified)
Activity (Plasmodium berghei [5]): 25%
Activity (Plasmodium berghei [6]): 7.4
Stability [7]: Stable

O=C1c2ccccc2SC(c2ccc(Cl)cc2)N1CCCNc1ccnc2cc(Cl)ccc12 (stereo unspecified)
Activity (Plasmodium yoelii [1]): 40.08%
Survival (Plasmodium yoelii [2]): 10.6 days
IC50 (Plasmodium falciparum [3]): 138 nM
MIC (Plasmodium falciparum [3]): 0.27 µM (≈ 0.134 µg/mL)

CN1CCN(Cc2c(O)ccc(/C=N/NC(=O)NCCNc3ccnc4cc(Cl)ccc34)c2O)CC1
IC50 [4]: > 20000 nM

O=C(NCCNc1ccnc2cc(Cl)ccc12)N/N=C/c1ccc(O)c(CN2CCOCC2)c1O
IC50 [4]: > 20000 nM

COc1cc(NC(C)CCCN2C(=O)CNC2(C)C)c2ncccc2c1 (stereo unspecified)
Activity (Plasmodium berghei [5]): 21%
Activity (Plasmodium berghei [6]): 6.1

O=C(NCCNc1ccnc2cc(Cl)ccc12)N/N=C/c1ccc(O)c(CN2CCCCC2)c1O
IC50 [4]: 630 nM

CCCCNC(=O)C[C@H](O)[C@H](CC(C)C)NC(=O)[C@@H](NC(=O)Cc1ccc(CC(=O)N[C@H](C(=O)N[C@H](CCCCN)C(=O)NCCCC(C)Nc2cc(OC)cc3cccnc23)C(C)C)cc1)[C@H](C)CC (stereo partly specified)
IC50 (Plasmodium falciparum [8]): 4200 nM
IC50 (Plasmepsin II): 135000 nM
IC50 (Plasmodium falciparum [9]): 5500 nM

O=C(CN1CCCCC1)Nc1cc(COC(=O)CCC2=CC(=O)c3ccccc3C2=O)cc(Nc2ccnc3ccc(Cl)cc23)c1
EC50 (Plasmodium falciparum [10]): 23 nM

CC(C)(C)C(=O)CN(CCCNc1ccnc2cc(Cl)ccc12)C(=O)c1cnccn1
IC50 (Plasmodium falciparum [11]): 2290 nM
IC50 (Plasmodium falciparum [8]): 1650 nM
IC50 (Plasmodium falciparum [9]): 1380 nM

COc1cc(NC(C)CCCN2C(=O)[C@@H](Cc3ccccc3)NC23CCCCCC3)c2ncccc2c1 (stereo partly specified)
Activity (Plasmodium berghei [5]): 90%
Activity (Plasmodium berghei [6]): 78.9
Stability [7]: Stable

CC(C)(C)NC(=O)C1(C)CCC(=O)N1CCCCCCNc1ccnc2cc(Cl)ccc12 (stereo unspecified)
IC50 (Plasmodium falciparum [8]): 180 nM

CC(C)(C)C(=O)CN(CCNc1ccnc2cc(Cl)ccc12)C(=O)c1cnccn1
IC50 (Plasmodium falciparum [11]): 1130 nM
IC50 (Plasmodium falciparum [8]): 1190 nM
IC50 (Plasmodium falciparum [9]): 712 nM

O=C(CN(CCCNc1ccnc2cc(Cl)ccc12)C(=O)c1ccc(O)cc1O)C1CCCCC1
IC50 (Plasmodium falciparum [11]): 3830 nM
IC50 (Plasmodium falciparum [8]): 5940 nM
IC50 (Plasmodium falciparum [9]): 1670 nM

O=C(CN(CCNc1ccnc2cc(Cl)ccc12)C(=O)c1cnccn1)C1CCCCC1
IC50 (Plasmodium falciparum [11]): 1350 nM
IC50 (Plasmodium falciparum [8]): > 10000 nM
IC50 (Plasmodium falciparum [9]): 793 nM

NC(=S)N/N=C1/C(=O)N(CCNc2ccnc3cc(Cl)ccc23)c2ccccc21
IC50 (Plasmodium falciparum [11]): 710 nM
IC50 (Plasmodium falciparum [8]): 240 nM
IC50 [4]: 14600 nM
IC50 (Plasmodium falciparum [9]): 320 nM

COc1cc(NC(C)CCCN2C(=O)[C@@H](Cc3ccccc3)NC23CCCCC3)c2ncccc2c1 (stereo partly specified)
Activity (Plasmodium berghei [5]): 83%
Activity (Plasmodium berghei [6]): 71
Stability [7]: Stable

CC1(C(=O)NC2CCCCC2)CCCC(=O)N1CCCCCCNc1ccnc2cc(Cl)ccc12 (stereo unspecified)
IC50 (Plasmodium falciparum [8]): 96 nM
IC50 [4]: 17600 nM

O=C(CN1CCCCC1)Nc1cc(COC(=O)CCCCC2=CC(=O)c3ccccc3C2=O)cc(Nc2ccnc3ccc(Cl)cc23)c1
EC50 (Plasmodium falciparum [10]): 23 nM

O=C(CN(CCCNc1ccnc2cc(Cl)ccc12)C(=O)c1cnccn1)C1CCCCC1
IC50 (Plasmodium falciparum [11]): 521 nM
IC50 (Plasmodium falciparum [8]): 877 nM
IC50 (Plasmodium falciparum [9]): 242 nM

O=C(CN(CCCNc1ccnc2cc(Cl)ccc12)C(=O)c1ccncc1)C1CCCCC1
IC50 (Plasmodium falciparum [11]): 73 nM
IC50 (Plasmodium falciparum [8]): 1570 nM
IC50 (Plasmodium falciparum [9]): 237 nM

O=C(CN1CCCCC1)Nc1cc(COC(=O)CCCCCC2=CC(=O)c3cccc(O)c3C2=O)cc(Nc2ccnc3ccc(Cl)cc23)c1
EC50 (Plasmodium falciparum [10]): 23 nM

O=C(CN1CCCCC1)Nc1cc(COC(=O)CCCCC2=CC(=O)c3cccc(O)c3C2=O)cc(Nc2ccnc3ccc(Cl)cc23)c1
EC50 (Plasmodium falciparum [10]): 23 nM

COc1cc(NC(C)CCCN2C(=O)[C@@H](CC(C)C)NC2(C)C)c2ncccc2c1 (stereo partly specified)
Activity (Plasmodium berghei [5]): 30%
Activity (Plasmodium berghei [6]): 13.7
Stability [7]: Stable

COc1cc(NC(C)CCCN2C(=O)[C@@H](C(C)C)NC23CCCCCC3)c2ncccc2c1 (stereo partly specified)
Activity (Plasmodium berghei [5]): 65%
Activity (Plasmodium berghei [6]): 17.7

CC(C)(C)C(=O)CN(CCNc1ccnc2cc(Cl)ccc12)C(=O)c1ccncc1
IC50 (Plasmodium falciparum [11]): 1100 nM
IC50 (Plasmodium falciparum [8]): 991 nM
IC50 (Plasmodium falciparum [9]): 1060 nM

CCCCNC(=O)C[C@H](O)[C@H](CC(C)C)NC(=O)[C@@H](NC(=O)c1ccc(Oc2ccc(C(=O)N[C@H](C(=O)N[C@H](CCCCN)C(=O)NCCCC(C)Nc3cc(OC)cc4cccnc34)C(C)C)cc2)cc1)[C@H](C)CC (stereo partly specified)
IC50 (Plasmodium falciparum [8]): 700 nM
IC50 (Plasmepsin II): 590 nM
IC50 (Plasmodium falciparum [9]): 400 nM

COc1cc(NC(C)CCCN2C(=O)[C@@H](Cc3ccccc3)NC23CCCC3)c2ncccc2c1 (stereo partly specified)
Activity (Plasmodium berghei [5]): 65%
Activity (Plasmodium berghei [6]): 51.6

CC(C)(C)C(=O)CN(CCNc1ccnc2cc(Cl)ccc12)C(=O)c1ccc(O)cc1O
IC50 (Plasmodium falciparum [11]): 5790 nM
IC50 (Plasmodium falciparum [8]): 4140 nM
IC50 (Plasmodium falciparum [9]): 5660 nM

O=C(CN(CCNc1ccnc2cc(Cl)ccc12)C(=O)c1ccncc1)C1CCCCC1
IC50 (Plasmodium falciparum [11]): 531 nM
IC50 (Plasmodium falciparum [8]): 619 nM
IC50 (Plasmodium falciparum [9]): 540 nM

COc1cc(NC(C)CCCN2C(=O)[C@@H](Cc3ccccc3)NC2(C)C)c2ncccc2c1 (stereo partly specified)
Activity (Plasmodium berghei [5]): 76%
Activity (Plasmodium berghei [6]): 61.2
Stability [7]: Stable

CC(C)(C)C(=O)CN(CCCNc1ccnc2cc(Cl)ccc12)C(=O)c1ccncc1
IC50 (Plasmodium falciparum [11]): 18200 nM
IC50 (Plasmodium falciparum [8]): 3810 nM
IC50 (Plasmodium falciparum [9]): > 20000 nM

CCCCNC(=O)C[C@H](O)[C@H](CC(C)C)NC(=O)[C@@H](NC(=O)Cc1ccc2cc(CC(=O)N[C@H](C(=O)N[C@H](CCCCN)C(=O)NCCCC(C)Nc3cc(OC)cc4cccnc34)C(C)C)ccc2c1)[C@H](C)CC (stereo partly specified)
IC50 (Plasmodium falciparum [8]): 4700 nM
IC50 (Plasmepsin II): 1510 nM
IC50 (Plasmodium falciparum [9]): 6200 nM

COc1cc(NC(C)CCCN2C(=O)[C@@H](C)NC23CCCCC3)c2ncccc2c1 (stereo partly specified)
Activity (Plasmodium berghei [5]): 20%
Activity (Plasmodium berghei [6]): 0.8

Cc1ccc2c(c1)/C(=N\NC(N)=S)C(=O)N2CCNc1ccnc2cc(Cl)ccc12
IC50 (Plasmodium falciparum [11]): 100 nM
IC50 (Plasmodium falciparum [8]): 51 nM
IC50 [4]: 11600 nM
IC50 (Plasmodium falciparum [9]): 79 nM

COc1cc(NC(C)CCCN2C(=O)[C@@H](C(C)C)NC2(C)C)c2ncccc2c1 (stereo partly specified)
Activity (Plasmodium berghei [5]): 25%
Activity (Plasmodium berghei [6]): 5
Stability [7]: Stable

COc1cc(NC(C)CCCN2C(=O)[C@@H](C(C)C)NC23CCCC3)c2ncccc2c1 (stereo partly specified)
Activity (Plasmodium berghei [5]): 35%
Activity (Plasmodium berghei [6]): 4.2

COc1cc(NC(C)CCCN2C(=O)[C@@H](C(C)C)NC23CCCCC3)c2ncccc2c1 (stereo partly specified)
Activity (Plasmodium berghei [5]): 85%
Activity (Plasmodium berghei [6]): 61.1
Stability [7]: Stable

NC(=S)N/N=C1/C(=O)N(CCNc2ccnc3cc(Cl)ccc23)c2ccc(Cl)cc21
IC50 (Plasmodium falciparum [11]): 54 nM
IC50 (Plasmodium falciparum [9]): 95 nM

Reference: ChEMBL document CHEMBL1153593, “Recent developments in the design and synthesis of hybrid molecules based on aminoquinoline ring and their antiplasmodial evaluation” (Eur J Med Chem, 2009)
